# Results taken from patent US20110014260A1, “SYSTEM AND METHOD FOR LIVER CELL CULTURE AND MATURATION” (priority 2007, published 2011).
# Assays:
# Type in all cases: cell-based, mouse
# [1] = test system: day 17 EB derived hepatocyte lineage cells (ES cell line D3); assay: In situ indirect immunofluorescent cytokeratin-18 analysis; parameters: key to CK18: A (+) represents at least one time point of significant expression or secretion function in the three conditions.; A (−) represents functions which were absent on all experimental days
# Procedure: (§1) In order to induce differentiation, cells were suspended in Iscove's modified Dulbecco's medium (Gibco) containing 20% fetal bovine serum (Gibco), 4 mM L-glutamine (Gibco), 100 U/ml penicillin, 100 U/ml streptomycin (Gibco), 10 ug/ml gentamicin (Gibco). Embryoid bodies were formed and cultured for two days using the hanging drop method (1×10^3 ES cells per 30 ul drop). Hanging drops where transferred to suspension culture in 100 mm petri dishes and cultured for an additional 2 days. The EB's were then plated, one EB per well, in 6 well tissue culture polystyrene plates (BD-Biosciences) for an additional 14 days. For secondary culture day 17 EBs cells were detached following incubation with 0.5 ml of trypsin (Gibco) for three minutes, resulting in a single cell suspension, and subsequently the addition of IMDM media. Cells from day 17 EB's were used because it has been observed that hepatocyte function is greatest on day 17. Cells were then re-plated in 6 well tissue culture polystyrene (BD-Biosciences) at an initial seeding density of 5×10^4 day 17 cells per well for further analysis. Culture medium was changed every forty eight hours. When OSM and SNAP were supplemented, 10 ng/ml OSM and 250 μM SNAP were added to the culture medium. […]
# [2] = test system: day 17 EB derived hepatocyte lineage cells (ES cell line D3); assay: Sandwich ELISA for detection of albumin secretion; parameters: key to ALB Secretion: A (+) represents at least one time point of significant expression or secretion function in the three conditions.; A (−) represents functions which were absent on all experimental days
# Procedure: as §1, with “17.” for “17. Cells were then re-plated in 6 well tissue culture polystyrene (BD-Biosciences) at an initial seeding density of 5×10^4 day 17 cells per well for further analysis. Culture medium was changed every forty eight hours. When OSM and SNAP were supplemented, 10 ng/ml OSM and 250 μM SNAP were added to the culture medium.”
# In order to detect secreted albumin within the media supernatants obtained on each of the analysis days, we used a commercially available mouse albumin ELISA kit (Bethyl Laboratories, #E90-134). […] Absorbance readings were obtained using a Biorad (Hercules, Calif.) Model 680 plate reader with a 450 nm emission filter. Albumin values were normalized to the cell number recorded on the day of media sample collection.
# [3] = test system: day 17 EB derived hepatocyte lineage cells (ES cell line D3); assay: Urea secretion; parameters: key to Urea: A (+) represents at least one time point of significant expression or secretion function in the three conditions.; A (−) represents functions which were absent on all experimental days
# Procedure: as §1, with “analysis.” for “analysis. Culture medium was changed every forty eight hours. When OSM and SNAP were supplemented, 10 ng/ml OSM and 250 μM SNAP were added to the culture medium.”
# Media samples were collected on all analysis days. […] Absorbance readings were obtained using a Biorad (Hercules, Calif.) Model 680 plate reader with a 585 nm emission filter. Urea values were normalized to the cell number recorded on the day of media sample collection.
# [4] = test system: day 17 EB derived hepatocyte lineage cells (ES cell line D3); assay: Cell number / proliferation in secondary culture; conditions: collagen sandwich configuration, within 10 days
# Procedure: as §1, with “media.” for “media. Cells from day 17 EB's were used because it has been observed that hepatocyte function is greatest on day 17. Cells were then re-plated in 6 well tissue culture polystyrene (BD-Biosciences) at an initial seeding density of 5×10^4 day 17 cells per well for further analysis. Culture medium was changed every forty eight hours. When OSM and SNAP were supplemented, 10 ng/ml OSM and 250 μM SNAP were added to the culture medium.”
# Therefore, cultures were established to study the maintenance and augmentation of hepatocyte like function previously observed after 17 days of spontaneous EB mediated differentiation. Hepatocyte lineage maintenance was initially assessed by examining the dynamics of cell growth following removal of cells from their primary EB culture and re-plating into tissue culture polystyrene. 5×10^4 cells from day 17 EB cultures were re-plated into one well of a six well plate and evaluated on days 4, 6, 8 and 10 days post re-plating. […]
# [5] = test system: day 17 EB derived hepatocyte lineage cells (ES cell line D3); assay: In situ indirect immunofluorescent intracellular albumin analysis; parameters: key to Intracellular ALB: A (+) represents at least one time point of significant expression or secretion function in the three conditions.; A (−) represents functions which were absent on all experimental days
# Procedure: as §1, with “medium. When collagen sandwich culture was used, rat tail type I collagen (BD-Biosciences) gels were prepared by distributing 350 μL of collagen gel solution (3 parts 1.33×DMEM, pH 7.4, and 1 part collagen solution at 4 mg/mL, chilled on ice and mixed immediately prior to use) evenly over one well of a six well plate (BD-Biosciences) and incubated at 37° C. for at least one hour before use. 5×10^5 cells were seeded in 2 mL of IMDM media on day 0 and an additional 350 μL of collagen gel solution was distributed over the cells after 1 day of culture. Therefore, the second layer of collagen is added on day 1 of secondary culture protocol. One hour of incubation at 37° C. was allowed for gelation and attachment of the second gel layer before the medium was replaced. Culture medium was changed every forty eight hours.” for “medium.”
# [6] = test system: day 17 EB derived hepatocyte lineage cells (ES cell line D3); assay: Cytochrome P450 activity (resorufin o-dealkylase, BROD/MROD); parameters: key to CYP450: A (+) represents at least one time point of significant expression or secretion function in the three conditions.; A (−) represents functions which were absent on all experimental days
# Procedure: On evaluation days 4, 6, 8 and 10 days in secondary culture, cells were re-plated into 12 well plates. 3-Methylcholanthrene was used at a concentration of 2 μM (Sigma-Aldrich) for 48 hours prior to the addition of resorufin as an inducer of cytochrome P450 activities. Cytochrome P450-dependent resorufin o-dealkylase activity (BROD, PROD, EROD, and MROD) was measured using resorufin substrates namely pentoxy-, benzyloxy-, ethoxy-, and methoxyresorufin from a Resorufin Sampler Kit (Invitorgen, Carlsbad, Calif.). […] The fluorescence of the plate was measured using a fluorescence plate reader (DTX880, Beckman Coltour, Fullerton, Calif., ext. 530 nm and emis. 590 nm) at the end of min incubation. A standard curve of resorufin fluorescence was constructed using concentrations ranging from 1 to 1,000 nmol in EBSS. […] The constructed standard curve was used to convert the fluorescence values obtained from the plate reader to nanomoles of resorufin. Rate of formation of resorufin, as calculated from the early linear increase in the fluorescence curve, was defined as cytochrome P450 activity and expressed as nmol/min.
# Cytochrome P450 enzymes play a key role in detoxifying xenobiotics and were used in these studies to asses hepatocyte function. […] BROD and MROD activity can be determined from the enzymatic conversion of resorufin.
# [7] = test system: day 17 EB derived hepatocyte lineage cells (ES cell line D3); assay: Glycogen storage; parameters: key to Glycogen: A (+) represents at least one time point of significant expression or secretion function in the three conditions.; A (−) represents functions which were absent on all experimental days
# [8] = polystyrene culture, OSM or SNAP supplemented
# [9] = polystyrene secondary culture, 10 ng/ml OSM or 250 μM SNAP, days 4-10
substance,measurement,setting,value
Oncostatin-M [OSM],CK18 expression,[1]; [8],not detected at any level
same,CK18,[1]; [9],−
same,albumin secretion,[2]; [8],not detected at any level
same,ALB Secretion,[2]; [9],−
same,Urea secretion time course,"[3]; polystyrene culture, supplemented",greatest at day eight
same,Urea,[3]; [9],+
same,cell number reached from 5×10^4 Day 17 cells,[4],1×10^6 cells
same,albumin expression (percentage of cells expressing albumin),"[5]; collagen sandwich culture, 10 days post re-plating",80%
same,Intracellular ALB,[5]; [9],+
same,Time for which ALB expression was maintained,"[5]; polystyrene secondary/tertiary culture, supplemented, SNAP at a lower level",up to eight
same,CYP450 mediated detoxification,[6]; [8],not detected at any level
same,CYP450,[6]; [9],−
same,glycogen storage,[7]; [8],not detected at any level
same,Glycogen,[7]; [9],−
